System: human osteoporosis
Assay: Case 1: bone density and symptoms of a person with compression fractures
Assay type: in vivo
Details: human patient
Description: In the present specification, bone density can be measured by an existing measuring method, for example, by dual-energy-x-ray absorptiometry (DXA) of the trunk bone.

[1] = hydrogen gas inhalation 1.5% to 2.0% by volume

In the case of `[HH]` [hydrogen gas, molecular hydrogen], the body feeling [1] is reported as “feeling that the body became light”, the “daily activity (weeding in the garden)” value [1] is reported as “weeding in the garden becoming easy” and the “feeling when waking up in the morning” value [1] is reported as “having a good feeling and feeling refreshed”. The gait [1] was “improvement in the gait”, the “pain at the compression fracture sites in the lower back” value [1] was “improvement” and the tiredness [1] was “feeling tired less easily”. For the same compound, the bone density (inhalation from November 2020, 1.5% to 2.0% by volume hydrogen, 30 mL/min, nightly, measured March 2021 (84% in August 2020)) was 92%.
For “denosumab [Pralia Subcutaneous Injection, reference compound]”, the bone density (baseline 74%, injection once every six months, 18 months later) was “exceeded 80%”, the bone density (injection once every six months, August 2020) was 84% and the bone density (injection once every six months, February 2020) was 86%.
